Test results as given in patent publication US10913750B2, “Tubulin-binding compounds, compositions and uses related thereto” (The Regents of the University of California, priority 2015, dated 2021).

Experiments:
[1] = test system: HeLa cells; assay: CellTiter-Glo cell viability, HeLa cells; assay type: cell-based; details: Homo sapiens; HeLa cells, 72 hours, CellTiter-Glo
Method: (§1) The cell viability IC50 of each compound was determined using Promega CellTiter-Glo Luminescent Cell Viability Assay kit by measuring the total ATP levels to quantify the number of metabolically active cells upon drug treatment as described in Crouch et al., J Immunol Methods 1993, 160, (1), 81-8. Briefly, the compounds were suspended in DMSO at 10 mM and diluted in 384 plates (20 μl/well in DMSO) in triplicate by a 14-point titration (12 nM to 100 μM). 50 μl of HeLa cells or patient derived glioblastoma cells (HK-309) (2000 cells/well) were then treated with the prepared dilutions of the drugs (0.5 μl) and incubated at 37° C. and 5% CO2. 72 hours later 50 μl of CellTiter-Glo reagent was added to each well followed by a 2 minutes shaking and a 10-minute incubation to lyse the cells. The relative luminescent intensity units (RLU) of each well was measured using a Tecan M1000 microplate reader (Tecan Group Ltd.) with its green filter and 1 second integration time.
(§2) Cells used in Example 2 and other examples disclosed herein were cultured as follows: Adherent HeLa cells and patient derived glioblastoma cells were grown with 5% CO2 at 37° C. in F12:DMEM 50:50 medium (Invitrogen) containing 10% FBS and 1% penicillin/streptomycin. To obtain HeLa cells synchronized in mitosis, cycling cells were treated with 2 mM thymidine (Sigma-Aldrich) for eighteen hours, washed three times with PBS, and released into fresh media until they entered mitosis eight hours post-release. Patient-derived glioblastoma cells (HK-309) were collected and grown with approval from the UCLA Institutional Review Board. HK-309 was derived from a recurrent glioblastoma taken from a person. The cells were initially propagated as cancer stem cell-containing spheres in serum-free medium containing basic fibroblast growth factor and epidermal growth factor (Preprotech) as described previously by Visnyei et al., Mol Cancer Ther 2011, 10, (10), 1818-28.
For mitotic arrest IC50s, cells were treated with a twenty-point-2-fold-titration (190 pM to 10 μM) of each compound tested for 20 hours. For cell viability IC50s, cells were treated with a fourteen-point-2-fold-titration (12.2 nM to 100 μM). Mitotic arrest IC50 was determined by measuring the percent G2/M arrest using the Vybrant DyeCycle Green (Invitrogen) assay described above. Cell viability IC50 was determined using the CellTiter-Glo Assay (Promega), which measures total ATP levels. Plates were read with a Tecan M1000 micro-plate reader at 540 nm. The CDD software was used for generating IC50 and IC90 values.

[2] = test system: patient-derived glioblastoma cells (HK-309); assay: CellTiter-Glo cell viability, patient-derived glioblastoma cells; assay type: cell-based; details: HK-309, 72 hours
Method: as §1, §2

[3] = target: T1, tubulin (Sus scrofa, UniProt P02554); assay: In vitro tubulin polymerization assay (HTS-tubulin polymerization kit, Cytoskeleton); assay type: biochemical; details: 3 μM compound, fluorescence, 70 minutes at 37° C.
T1 construct: purchased Cytoskeleton Inc. BK011P
T1 sequence (P02554 whole entry): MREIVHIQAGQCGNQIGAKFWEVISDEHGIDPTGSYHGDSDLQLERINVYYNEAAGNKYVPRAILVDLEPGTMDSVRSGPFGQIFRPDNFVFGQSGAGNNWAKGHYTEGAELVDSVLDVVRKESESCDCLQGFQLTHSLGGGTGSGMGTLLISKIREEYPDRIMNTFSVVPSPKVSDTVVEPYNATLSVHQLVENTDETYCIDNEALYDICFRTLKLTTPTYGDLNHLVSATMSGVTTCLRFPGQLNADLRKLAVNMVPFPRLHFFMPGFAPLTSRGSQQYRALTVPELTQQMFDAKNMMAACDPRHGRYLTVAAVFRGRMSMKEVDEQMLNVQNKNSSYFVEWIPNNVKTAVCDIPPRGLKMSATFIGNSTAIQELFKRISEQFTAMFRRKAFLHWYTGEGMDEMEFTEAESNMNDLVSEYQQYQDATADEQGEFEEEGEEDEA
T1 sequence (P02550 whole entry partner): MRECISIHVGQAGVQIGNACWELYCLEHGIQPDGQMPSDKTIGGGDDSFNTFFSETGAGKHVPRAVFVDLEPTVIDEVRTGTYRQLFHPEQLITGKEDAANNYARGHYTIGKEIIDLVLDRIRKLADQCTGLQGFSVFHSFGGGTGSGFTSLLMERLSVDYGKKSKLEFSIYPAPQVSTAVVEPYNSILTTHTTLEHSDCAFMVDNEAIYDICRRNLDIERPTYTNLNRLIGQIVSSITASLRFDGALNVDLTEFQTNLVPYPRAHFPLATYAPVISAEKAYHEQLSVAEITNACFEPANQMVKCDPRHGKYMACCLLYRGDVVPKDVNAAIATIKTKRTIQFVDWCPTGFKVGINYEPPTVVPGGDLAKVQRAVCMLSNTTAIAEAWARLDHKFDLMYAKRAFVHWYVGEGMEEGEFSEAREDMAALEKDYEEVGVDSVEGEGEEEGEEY
Method: 1.5 ul of 10× strength compound, 20 μl of tubulin solution and Triton X-100 at a final concentration of 0.01% were added to each well in a 384 well plate. The reactions were assembled on ice to prevent tubulin pre-polymerization. For kinetic measurements, microtubule polymerization was monitored by reading the fluorescence at 420 nm (due to the incorporation of a fluorescent reporter into microtubules as polymerization occurs) every ten seconds using a Tecan M1000 microplate reader (FIG. 6B). […] Fluorescence increased as polymerization occurred, due to the incorporation of 4′,6-diamidino-2-phenylindole. Fluorescence was monitored every minute for 70 minutes at 37° C.
Tubulin polymerization reactions were carried out according to the manufacturer (Cytoskeleton, BK011P) in the presence of 3 μM colchicine, MI-181, taxol or DMSO. Polymerization was monitored with a Tecan M1000 micro-plate reader at 420 nm for 70 minutes at 37° C. The results are depicted in FIG. 11.

[4] = test system: HeLa cells; assay: Microtubule stability by immunofluorescence microscopy; assay type: cell-based; details: increasing concentrations, anti-α-tubulin staining
Method: Next, microtubule stability was analyzed in HeLa cells treated with increasing concentrations of each of these three compounds by fixing the cells with 4% paraformaldehyde, staining them with Hoechst 33342 (DNA dye) to visualize their DNA and anti-α-tubulin antibodies to visualize microtubule structures and then imaging them by immunofluorescence microscopy.

[5] = test system: HeLa cells; assay: Cell cycle analysis / cell division; assay type: cell-based; details: 20 hours
Method: For cell cycle analysis, HeLa cells were plated in 384 well plates (1500 cells/well) and treated with 10 μM drugs for 20 hours. Cells were then fixed and stained with 5 μM Vybrant DyeCycle Green (Invitrogen) for 1 hour at 37° C. and plates were scanned with an Acumen eX3 (TTP Labtech) fluorescence microplate cytometer using its 488 nm laser and a cell cycle histogram profile was generated for each drug treatment using the CDD (Collaborative Drug Discovery) software. […] Additionally, HeLa cells were treated with increasing concentrations of colchicine and compound 10 for 20 hours and the drug response dose curves were used to measure the mitotic arrest IC50 for each treatment.
Briefly, HeLa cells were treated with increasing concentrations of 10, 10a, and 10b for 20 hours and the drug response dose curves were used to measure the mitotic arrest IC50 for each treatment. Also, the percentage of cells undergoing normal cell division was quantified for DMSO, colchicine, 10b, or taxol-treated cells. Data represent the average±SD of 3 independent experiments, with 20 cells counted for each. Asterisks denotes p-value<0.0001.

[6] = test system: β-tubulin; assay: Crystal structure of T2R-TTL tubulin complex soaked with ligand; assay type: binding, bovine; details: T2R-TTL crystal soaked 24 hours with 1 mM compound
Method: The crystal structure of tubulin bound to two ligands described here was obtained using an established system for tubulin crystal growth. […] Methods in Cell Biology 2010, 95:373-390.) Briefly, bovine αβ-tubulin, human RB3 or rat STMN4 stathmin-like domain, and chicken tubulin tyrosine ligase (TTL) reconstitute to form a stathmin-bound αβ-tubulin (T2R) T2R-TTL complex, which readily crystallizes. […]
The final resolution cutoffs described here were determined optimally from a subset of diffraction images that took into consideration the signal-to-noise ratio for reflection intensities and the random half-data set correlation coefficient, CC1/2 (Karplus P. A., Diederichs K. Linking crystallographic model and data quality. Science 2012, (New York, N.Y.) 336:1030-1033.) […]

| IC50 [1] | IC50 [2] | binding to tubulin in crystal structure [6] | SMILES | inhibition of microtubule (tubulin) polymerization in vitro [3] | microtubule stability in treated cells [4] | effect on cell division and cell death [5] |
| --- | --- | --- | --- | --- | --- | --- |
| 552 nM | 352 nM | – | O=c1[nH]c(/C=C/c2ccccc2)nc2sc3c(c12)CCCC3 [Compound 10, (E)-2-styryl-5,6,7,8-tetrahydrobenzo[4,5]thieno[2,3-d]pyrimidin-4(3H)-one] | potent inhibitors of microtubule polymerization similar to colchicine | destabilized in a drug dose-dependent manner | inhibit cell division and trigger apoptotic cell death |
| – | – | bound to β-tubulin | CCOc1ccc(C2=Nn3c(nnc3-c3ccccc3OC)SC2)cc1 [Compound C2, reference compound] | – | – | – |
